# Data published in patent US11351178B2, “Selective HDAC6 inhibitors” (ITALFARMACO S.P.A., priority 2017, dated 2022).
# “Also recorded” adds a separate entry of the source.
# How the values were obtained:
# [1] = system: CD4 and CD8 T cells of CT-26 bearing mice; assay: Ex vivo stimulation of splenocytes with CT-26 tumor peptides, IFN-γ and TNF-α by CD4 and CD8 T cells (ELISPOT); assay type: in vivo, BALB/c mice; conditions: splenocytes stimulated with CT-26 specific peptides, FIGS. 4 and 5
# Protocol: Splenocytes of animal treated with Compounds 8 and 10 and the combination with anti PD-1 Ab were stimulated with CT-26 derived tumor peptides and the production of IFN-γ and TNF-α by CD4 T cells was quantified by ELISPOT.
# Splenocytes of animal treated with Compound 8 and 10 and the combination with anti PD-1 Ab were stimulated with CT-26 derived tumor peptides and the production of IFN-γ and TNF-α by CD8 Tcells was quantified by ELISPOT.
# Adult BALB/c mice were injected s.c. with 1×10^6 CT26 tumor cells (diluted to 100 ul with phosphate-buffered saline). One week later, mice were given daily compounds 8 and 10 p.o. at 50 mg/Kg and/or injected with anti-PD1 antibody at 10 mg/Kg. At time of sacrifice, spleens were taken to analyze ex vivo, the tumor immune response. Spleen cells were stimulated with a mixture of CT-26 tumor specific peptides recognized in the context of both MHC I and MHC II. Thus, using this ex vivo stimulation, a specific tumor response mediated by CD4 and CD8 T cells can be detected.
# The results are shown in FIGS. 4 and 5 where the percentage of CD4 and CD8 T cells that produce IFN-γ and TNF-α are indicated for each treatment group.
# [2] = system: EMT6, CT26, 4T1 murine tumors; assay: In vivo murine tumor models (FIG. 2); parameters: species or system mouse; conditions: compounds 50 mg/kg oral gavage once a day 5 days a week, anti PD-1 10 mg/kg ip three times a week
# Description: Four different immune-oncology mouse models of cancer were used to evaluate the in vivo efficacy of compounds 8 and 10 of this invention. In this experiment, we compared the efficacy of an anti PD-1 antibody with that shown by the HDAC6 inhibitors. Anti PD-1 targets the immune checkpoint PD-1/PD-L1 axis and is an established immunotherapy in a growing number of malignancies (Pardoll D. M., Nature Reviews Cancer, 2012, 12: 252-264).
# Tumors were induced in immunocompetent mice using the following cell lines: • EMT6 (murine breast cancer) • CT26 (murine colon cancer • 4T1 (triple negative murine breast cancer)
# • Therapeutic treatment started when tumor nodules reached approximately 3 mm in diameter. • Compounds 8 and 10 were administered by oral gavage once a day for 5 days a week at 50 mg/kg. • Anti PD-1 antibody was administered three times a week by ip injection at 10 mg/kg.
# [3] = system: PD-L1 expression in iDC (GMCSF-IL-4 stimulated monocytes); assay: Inhibition of the expression of PD-L1 in in vitro derived dendritic cells; assay type: cell-based; conditions: human monocytes, GMCSF-IL-4, 5 days, FIG. 1
# Protocol: FIG. 1: The inhibition of PD-L1 expression in iDC (GMCSF-IL-4 stimulated monocytes). Human monocytes were treated with HDAC6 inhibitors and stimulated with GMCSF-IL-4 for 5 days. After incubation, cells were collected and labelled with an anti PD-L1 antibody. Cells were then washed and fluorescence data were acquired using a flow cytometer (BD FACSVerse). Values on the graphs represent the mean of 3 experiment carried out on 3 different donors (n=3). The expression of PD-L1 is represented by the geometric mean of the fluorescence. *=P<0.05 determined by Student's t test.
# To obtain in vitro derived DCs, human monocytes purified from PBMC, were treated for 5 days with GMCSF (50 ng/ml) and IL-4 (10 ng/ml) in the presence of two selective HDAC6 inhibitors described in this invention (compounds 10 and 19) and the HDAC inhibitor example 43 of WO 2012/106343. Control cells were treated with the inhibitor's vehicle. This procedure induces the formation of immature dendritic cells (iDCs) that express PD-L1 (Brown J A et al. J Immunol. 2003; 170:1257-66). After 5 days, iDCs were analyzed for the expression of the inhibitory marker […].
SMILES,ex vivo tumor specific T cell immune response [1],tumor growth in vivo [2],PD-L1 expression in iDC [3]
"O=C(NO)c1ccc(Cn2nnnc2-c2cccs2)cc1 [comp. 8, N-hydroxy-4-((5-(thiophen-2-yl)-1H-tetrazol-1-yl)methyl)benzamide]",greater neo antigen immune response,comparable efficacy in reducing tumor growth; also recorded: reduce tumor growth in vivo,
"Cn1c(Sc2ccc(C(=O)NO)cc2)nnc1-c1cccs1 [comp. 10, N-hydroxy-4-((4-methyl-5-(thiophen-2-yl)-4H-1,2,4-triazol-3-yl)thio)benzamide]",greater neo antigen immune response,comparable efficacy in reducing tumor growth; also recorded: reduce tumor growth in vivo,reduced the PD-L1 expression in a statistically significant way
"O=C(NO)c1cc(F)c(Cn2nnc(-c3ccco3)n2)c(F)c1 [comp. 19, 3,5-difluoro-4-((5-(furan-2-yl)-2H-tetrazol-2-yl)methyl)-N-hydroxybenzamide]",,,reduced the PD-L1 expression in a statistically significant way
